Source: US8507251B2, “Medium and method for culturing Mycobacterium avium subspecies paratuberculosis” (priority 2009, dated 2013)
Where two headings read alike, the source gives them in different places.

Assays:
[1] = test system: MAP strain Dominic (ATCC 43545); test: radiometric 14CO2 BACTEC 460 growth culture, MAP Dominic; type: cell-based, Mycobacterium avium subspecies paratuberculosis
MAP strain UCF-4 = test: radiometric 14CO2 BACTEC 460 growth culture, MAP UCF-4; type: cell-based, Mycobacterium avium subspecies paratuberculosis
MAP ATCC 19698 = test: radiometric 14CO2 BACTEC 460 growth culture, MAP 19698; type: cell-based, Mycobacterium avium subspecies paratuberculosis
MAP 303 = test: radiometric 14CO2 BACTEC 460 growth culture, MAP 303; type: cell-based, Mycobacterium avium subspecies paratuberculosis
M. avium ATCC 25291 = test: radiometric 14CO2 BACTEC 460 growth culture, M. avium 25291; type: cell-based, M. avium subspecies avium
M. avium 101 = test: radiometric 14CO2 BACTEC 460 growth culture, M. avium 101; type: cell-based, M. avium subspecies avium
[2] = test system: Bacillus Callmette Guerin (BCG) M. bovis Karlson & Lessel (ATCC 19015); type: cell-based
[3] = test system: avirulent M. tb strain ATCC 25177; type: cell-based, M. tuberculosis
[4] = test system: eight mycobacterial strains

With `NNC(=O)c1ccncc1` [INH, Isoniazid, reference compound] the “percent change from control cGI (% ΔcGI / % −ΔcGI)” value (from here on “percent change … (% ΔcGI / % −ΔcGI)”) ([1]; 1 μg/ml, first of the two values (two experiments)) was 18%, the “percent change … (% ΔcGI / % −ΔcGI)” value ([1]; 1 μg/ml, second of the two values (two experiments)) was 11% and the “percent change … (% ΔcGI / % −ΔcGI)” value ([1]; 4 μg/ml, first of the two values (two experiments)) was 9%. The “percent change … (% ΔcGI / % −ΔcGI)” value ([1]; 4 μg/ml, second of the two values (two experiments)) was 29%, the “percent change … (% ΔcGI / % −ΔcGI)” value ([1]; 16 μg/ml, first of the two values (two experiments)) was −4% and the “percent change … (% ΔcGI / % −ΔcGI)” value ([1]; 16 μg/ml, second of the two values (two experiments)) was 9%. For the same molecule, the “percent change … (% ΔcGI / % −ΔcGI)” value ([1]; 64 μg/ml, first of the two values (two experiments)) was −65%, the “percent change … (% ΔcGI / % −ΔcGI)” value ([1]; 64 μg/ml, second of the two values (two experiments)) was −52% and the “effect on growth (in words)” value ([1]; at the doses tested) was “no dose-dependent inhibition”. For the same molecule, the “percent change … (% ΔcGI / % −ΔcGI)” value (MAP strain UCF-4; 1 μg/ml) was −5%, the “percent change … (% ΔcGI / % −ΔcGI)” value (MAP strain UCF-4; 4 μg/ml) was 2% and the “percent change … (% ΔcGI / % −ΔcGI)” value (MAP strain UCF-4; 16 μg/ml) was −4%. The “percent change … (% ΔcGI / % −ΔcGI)” value (MAP strain UCF-4; 64 μg/ml) was −35%, the “effect on growth (in words)” value (MAP strain UCF-4; at the doses tested) was “no dose-dependent inhibition” and the “percent change … (% ΔcGI / % −ΔcGI)” value (MAP ATCC 19698; 1 μg/ml) was −20%. For the same molecule, the “percent change … (% ΔcGI / % −ΔcGI)” value (MAP ATCC 19698; 4 μg/ml) was −14%, the “percent change … (% ΔcGI / % −ΔcGI)” value (MAP ATCC 19698; 16 μg/ml) was −17% and the “percent change … (% ΔcGI / % −ΔcGI)” value (MAP ATCC 19698; 64 μg/ml) was −63%. The “effect on growth (in words)” value (MAP ATCC 19698; at the doses tested) was “no dose-dependent inhibition”, the “percent change … (% ΔcGI / % −ΔcGI)” value (MAP 303; 1 μg/ml) was −18% and the “percent change … (% ΔcGI / % −ΔcGI)” value (MAP 303; 4 μg/ml) was −6%. The “percent change … (% ΔcGI / % −ΔcGI)” value (MAP 303; 16 μg/ml) was −12%, the “percent change … (% ΔcGI / % −ΔcGI)” value (MAP 303; 64 μg/ml) was −52% and the “effect on growth (in words)” value (MAP 303; at the doses tested) was “no dose-dependent inhibition”. The “percent change … (% ΔcGI / % −ΔcGI)” value (M. avium ATCC 25291; 1 μg/ml) was 176%, the “percent change … (% ΔcGI / % −ΔcGI)” value (M. avium ATCC 25291; 4 μg/ml) was 89% and the “percent change … (% ΔcGI / % −ΔcGI)” value (M. avium ATCC 25291; 16 μg/ml) was 189%. The “percent change … (% ΔcGI / % −ΔcGI)” value (M. avium ATCC 25291; 64 μg/ml) was −90%, the “percent change … (% ΔcGI / % −ΔcGI)” value (M. avium 101; 1 μg/ml) was −48% and the “percent change … (% ΔcGI / % −ΔcGI)” value (M. avium 101; 4 μg/ml) was −96%. For the same molecule, the “percent change … (% ΔcGI / % −ΔcGI)” value (M. avium 101; 16 μg/ml) was −95%, the “percent change … (% ΔcGI / % −ΔcGI)” value (M. avium 101; 64 μg/ml) was −97% and the “percent decrease from control cGI (%−ΔcGI)” value (from here on “percent decrease … (%−ΔcGI)”) (M. avium 101; 64 μg/ml, value is a decrease) was no less than 97%. The “percent decrease … (%−ΔcGI)” value [2] was no less than 97%, the “percent change … (% ΔcGI / % −ΔcGI)” value ([3]; 1 μg/ml) was −97% and the “percent decrease … (%−ΔcGI)” value ([3]; 1 μg/ml) was 97%. The “percent change … (% ΔcGI / % −ΔcGI)” value ([3]; 4 μg/ml) was −98%, the “percent change … (% ΔcGI / % −ΔcGI)” value ([3]; 16 μg/ml) was −98% and the “percent change … (% ΔcGI / % −ΔcGI)” value ([3]; 64 μg/ml) was −98%.
In the case of `CN1CCCC1c1cccnc1` (racemic) [(±) nicotine, nicotine], the “effect on growth (in words)” value [4] was “neither enhancement nor an inhibitory effect”.
